# Experimental data published in patent US20180201592A1, “2-AMINO-1,3,4-THIADIAZINE AND 2-AMINO-1,3,4-OXADIAZINE BASED ANTIFUNGAL AGENTS” (F2G Limited, priority 2015, published 2018).
# What was measured:
# Details in all cases: banded MIC grade
# A. terreus = test: Minimum inhibitory concentration, RPMI medium; assay type: cell-based
# Summary of the method: (§1)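 Thawed 5 mg/mL DMSO stocks are vortexed, diluted into sterile water and serially halved in water. The MIC test is then run in RPMI 1640 at 35° C for 24-48 hrs. Wells are read at OD 485 nm.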
# C. albicans = test: Minimum inhibitory concentration, RPMI medium; assay type: cell-based
# Summary of the method: as §1
# C. krusei = test: Minimum inhibitory concentration, RPMI medium; assay type: cell-based
# Summary of the method: as §1
# C. tropicalis = test: Minimum inhibitory concentration, RPMI medium; assay type: cell-based
# Summary of the method: as §1
# C. parapsilosis = test: Minimum inhibitory concentration, RPMI medium; assay type: cell-based
# Summary of the method: as §1
# A. terreus 49 [1] = test: Minimum inhibitory concentration, RPMI medium; assay type: cell-based
# Summary of the method: as §1
# A. flavus = test: Minimum inhibitory concentration, RPMI medium; assay type: cell-based
# Summary of the method: as §1
# A. niger = test: Minimum inhibitory concentration, RPMI medium; assay type: cell-based
# Summary of the method: as §1
# C. glabrata = test: Minimum inhibitory concentration, RPMI medium; assay type: cell-based
# Summary of the method: as §1
# A. fumigatus 210 [2] = test: Minimum inhibitory concentration, RPMI medium; assay type: cell-based
# Summary of the method: (§2)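 Compound doubling dilutions were prepared from 5 mg/mL DMSO stock; fungus was diluted in RPMI 1640 with 2% glucose and 0.135 M MOPS (pH 7.0), giving inocula of 1-2×10^4 cfu/mL and drug range 50-0.05 mg/L. Plates ran 24-48 hrs at 35° C; MIC is the lowest concentration giving >80% growth inhibition by OD485 versus drug-free control.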
# A. fumigatus = test: Minimum inhibitory concentration, RPMI medium; assay type: cell-based
# Summary of the method: as §2
# Aspergillus terreus = test: Minimum inhibitory concentration, YAG medium; assay type: cell-based
# Summary of the method: (§3)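 MIC values (mg/L) were derived from well optical density at 485 nm. Plates with Aspergillus spores and doubling aqueous dilutions of compound (5 mg/mL DMSO stock) had been incubated at 35° C for 24 hrs.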
# Aspergillus flavus = test: Minimum inhibitory concentration, YAG medium; assay type: cell-based
# Summary of the method: as §3
# Aspergillus niger = test: Minimum inhibitory concentration, YAG medium; assay type: cell-based
# Summary of the method: as §3
# A. terreus 49 [3] = test: Minimum inhibitory concentration, YAG medium; assay type: cell-based, Aspergillus terreus
# Summary of the method: as §3
# A. fumigatus 210 [4] = test: Minimum inhibitory concentration, YAG medium; assay type: cell-based, Aspergillus fumigatus
# Summary of the method: (§4)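 MICs (mg/L) reflect >70% inhibition of OD485 growth versus untreated control after 24 hrs at 35° C in YAG medium, spore inoculum 1-2×10^4 cfu/mL, drug range 50-0.05 mg/L.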
# Aspergillus fumigatus = test: Minimum inhibitory concentration, YAG medium; assay type: cell-based
# Summary of the method: as §4
Compound,"MIC grade, A. TERREUS, RPMI media (A. terreus)","MIC grade, C. ALBICANS, RPMI media (C. albicans)","MIC grade, C. KRUSEI, RPMI media (C. krusei)","MIC grade, C. TROPICALIS, RPMI media (C. tropicalis)","MIC grade, C. PARAPSILOSIS, RPMI media (C. parapsilosis)","MIC grade, A. TERREUS 49, RPMI media (A. terreus 49 [1])","MIC grade, A. FLAVUS, RPMI media (A. flavus)","MIC grade, A. NIGER, RPMI media (A. niger)","MIC grade, C. GLABRATA, RPMI media (C. glabrata)","MIC grade, A. FUMIGATUS 210, RPMI media (A. fumigatus 210 [2])","MIC grade, A. FUMIGATUS, RPMI media (A. fumigatus)","MIC grade, A. TERREUS, YAG media (Aspergillus terreus)","MIC grade, A. FLAVUS, YAG media (Aspergillus flavus)","MIC grade, A. NIGER, YAG media (Aspergillus niger)","MIC grade, A. TERREUS 49, YAG media (A. terreus 49 [3])","MIC grade, A. FUMIGATUS 210, YAG media (A. fumigatus 210 [4])","MIC grade, A. FUMIGATUS, YAG media (Aspergillus fumigatus)"
NC1=NN=C(CCCCOCc2ccc(Cl)cc2Cl)CS1,2 (2: 5-20 mg/L),2 (2: 5-20 mg/L),2 (2: 5-20 mg/L),2 (2: 5-20 mg/L),2 (2: 5-20 mg/L),2 (2: 5-20 mg/L),2 (2: 5-20 mg/L),1 (1: ≥20 mg/L),1 (1: ≥20 mg/L),1 (1: ≥20 mg/L),1 (1: ≥20 mg/L),2 (2: 1-5 mg/L),2 (2: 1-5 mg/L),3 (3: 0.2-1 mg/L),2 (2: 1-5 mg/L),2 (2: 1-5 mg/L),2 (2: 1-5 mg/L)
NC1=NN=C(CCCCOCc2ccc(F)cc2F)CS1,4 (4: <1 mg/L),4 (4: <1 mg/L),4 (4: <1 mg/L),4 (4: <1 mg/L),4 (4: <1 mg/L),4 (4: <1 mg/L),4 (4: <1 mg/L),4 (4: <1 mg/L),4 (4: <1 mg/L),3 (3: 1-5 mg/L),4 (4: <1 mg/L),4 (4: <0.2 mg/L),4 (4: <0.2 mg/L),4 (4: <0.2 mg/L),4 (4: <0.2 mg/L),4 (4: <0.2 mg/L),4 (4: <0.2 mg/L)
NC1=NN=C(CCCCOCc2cccc(Br)c2)CS1,3 (3: 1-5 mg/L),4 (4: <1 mg/L),4 (4: <1 mg/L),4 (4: <1 mg/L),4 (4: <1 mg/L),3 (3: 1-5 mg/L),4 (4: <1 mg/L),3 (3: 1-5 mg/L),3 (3: 1-5 mg/L),2 (2: 5-20 mg/L),4 (4: <1 mg/L),4 (4: <0.2 mg/L),4 (4: <0.2 mg/L),4 (4: <0.2 mg/L),4 (4: <0.2 mg/L),4 (4: <0.2 mg/L),4 (4: <0.2 mg/L)
